What was measured:
Assay type in all cases: in vivo
[1] = system: adult unfed cat fleas (Ctenocephalides felis); test: Ctenocephalides felis oral test; settings: 48 h
Experimental: Ctenocephalides felis—Oral Test
(§1) Solvent: dimethyl sulfoxide
To produce a suitable preparation of active compound, 10 mg of active compound are dissolved in 0.5 mL solvent, and the concentrate is diluted with citrated cattle blood to the desired concentration.
Approximately 20 adult unfed cat fleas (Ctenocephalides felis) are placed in a flea chamber whose top and bottom is covered with gauze. A chamber whose bottom is sealed with parafilm, is filled with the blood-compound solution and placed on top of the flea chamber, so that the fleas can suck the blood. The blood chamber is heated to 37° C. whereas the flea chamber is kept at room temperature.
After 2 days mortality in % is determined. 100% means all the fleas have been killed; 0% means none of the fleas have been killed.

[2] = system: engorged adult female cattle ticks (Rhipicephalus microplus) strain Parkhurst, SP-resistant; test: Rhipicephalus (Boophilus) microplus dip test; settings: 100 ppm, egg deposition after 7 days
Experimental: Rhipicephalus (Boophilus) Microplus—Dip Test
Test animal: cattle ticks (Rhipicephalus microplus) strain Parkhurst, SP-resistant
as §1
To produce a suitable preparation of active compound, 10 mg of active compound are dissolved in 0.5 mL solvent, and the concentrate is diluted with water to the desired concentration.
This compound solution is pipetted into tubes. 8-10 engorged, adult, female cattle ticks (Rhipicephalus microplus) are placed in perforated tubes. These tubes are immersed in the aqueous compound solution until the ticks are completely moistened. After the liquid has drained off, the ticks are transferred to a filter paper in a plastic tray and stored in a climate chamber.
After 7 days egg deposition of fertile eggs is monitored. Eggs where fertility is not visible are stored in a climate chamber till hatching after about 42 days. An efficacy of 100% means all eggs are infertile; 0% means all eggs are fertile.

[3] = system: adult mosquitoes Aedes aegypti strain MONHEIM; test: Aedes aegypti test (AEDSAE surface treatment & contact assay); settings: 24 hours after contact, read-out: efficacy (mortality)
Procedure, shortened: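 Compound in acetone containing 2000 ppm rapeseed oil methyl ester applied to a glazed tile and dried; adult mosquitoes exposed on the treated surface for 30 minutes. Percent mortality scored 24 hours after contact (100% = all dead, 0% = none dead).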

Compound: C[C@H](NC(=O)c1cc(Br)cc(OC(F)(F)F)c1)c1ncnn1-c1cc(C#N)ncn1 [I-1, 3-bromo-N-{(1S)-1-[1-(6-cyanopyrimidin-4-yl)-1H-1,2,4-triazol-5-yl]ethyl}-5-(trifluoromethoxy)benzamide]
- mortality at 100 ppm [1]: 100%
- efficacy (infertile eggs) [2]: 100%
- mortality at 4 mg/m2 ([3]; surface concentration 4 mg/m^2, 30 min exposure): 80 to 100%
- mortality at 20 mg/m2 ([3]; surface concentration 20 mg/m^2, 30 min exposure): 80 to 100%
